Eight molecules from patent publication US9783513B2, “STAT3 inhibitors and their anticancer use” (Ohio State Innovation Foundation, priority 2012, dated 2017) can be followed below.

By Kd is commonly meant a measure of binding affinity in units of concentration. Read a low Kd as a tighter complex. As usually defined, the IC50 is the point on the concentration scale where inhibition reaches its midpoint.

“Also recorded” adds a separate entry of the source. Like-named read-outs stand apart in the source and are kept apart here.

One assay addresses STAT3 (Homo sapiens, UniProt P40763). Briefly: Microscale thermophoresis binding to STAT3. Conditions: labeled STAT3 30 nM; LY17 1.52-50,000 nM.
The subject of assay [1] is human sarcoma cell line U2OS. Nature of the assay: Cell viability (MTT) assay, U2OS. It is filed as cell-based. The procedure:
(§1) Human sarcoma cell lines (RD2, RH30, U2OS) were seeded in 96-well plates at a density of 3,000 cells per well. The cells were incubated at 37° C. for a period of 24 hours. Different concentrations of LY-5 (0.1-10 μM), LY-3 (0.1-20 μM), and LLL12 (0.1-10 μM) prepared as a 20 mM stock solution in sterile DMSO were added in triplicate to the plates in the presence of 10% FBS. 3-(4,5-Dimethylthiazolyl)-2, 5-diphenyltetrazoliumbromide (MTT) was added to evaluate cell viability. The absorbance was read at 595 nm. IC50 values were determined using SigmaPlot 9.0 Software (Systat Software, Inc., San Jose, Calif.).
(§2) Alternatively, cells were seeded in 96-well plates in triplicate at a density of 3,000 cells per well and given 24 hours to adhere. Cells were then treated with varying concentrations of the inhibitors in the presence of 10% FBS. The cells were incubated for 72 hours at 37° C. 25 μl of MTT dye (Sigma, #M5655) was added to each sample and incubated for 3.5 hours. After this, 100 μl of N,N-dimethylformamide (Sigma, #D4551) solubilization solution was added to each well. The absorbance at 450 nm was read the following day. Half-Maximal inhibitory concentrations (IC50) were determined using Sigma Plot 9.0 software (Systat Software Inc.).
Table 6 below lists specific compounds as well as experimentally determined STAT3 activity in a cell-based assay. The STAT3 activity was determined using the cell viability assays with human sarcoma cell line U2OS as described above. The compounds in Table 6 were synthesized with methods identical or analogous to those described herein. The compound reference numbers (“Ref. No.”) in Table 6 correspond to the compound numbers used in Table 3.

The test system of assay [2] is human sarcoma cell line RH30. Nature of the assay: Cell viability (MTT) assay, RH30. It is filed as cell-based. The protocol: as §1, §2
(§3) Table 7 below lists specific compounds as well as experimentally determined STAT3 activity in a cell-based assay. The STAT3 activity was determined using the cell viability assays with human sarcoma cell lines (RD2, RH30, U2OS) as described above. The compound reference numbers (“Ref. No.”) in Table 7 correspond to the compound numbers used in Table 3.

Assay [3] relates to human sarcoma cell line RD2. Briefly: Cell viability (MTT) assay, RD2. It is filed as cell-based. The procedure: as §1, §2, §3
Assay [4] has as its system phosphorylated STAT3 (Tyr705). Nature of the assay: Western blot, constitutive STAT3 phosphorylation. It is filed as cell-based, human. Conditions: RH30. Background: A western blot detects proteins with antibodies after separation by electrophoresis.
Assay [5] concerns IL-6 induced STAT3 phosphorylation. Briefly: Western blot, IL-6 induced STAT3 phosphorylation. It is filed as cell-based, human. Conditions: MCF-7; LY-3 0.5-2.5 μM, LY-5 0.25-1 μM; 5 h; IL-6 25 ng/mL. The procedure:
(§4) RH30 cells were treated with DMSO, LY-5 (0.25-1 μM) and LY-3 (0.5-2.5 μM) prepared as a 20 mM stock solution in sterile DMSO at 60% to 80% confluence in the presence of 10% FBS for 24 hours. The sarcoma cell line EW8 was treated with DMSO and LY-5 (0.5-2.5 μM) prepared as a 20 mM stock solution in sterile DMSO at 60% to 80% confluence in the presence of 10% FBS for 24 hours. MCF-7 cells and DAOY cells were treated with DMSO, 25-50 ng/ml of IL-6, LY-5 (0.25-1 μM) or LY-3 (0.5-2.5 μM) prepared as a 20 mM stock solution in sterile DMSO, protein expressions of P-STAT3 (Tyr705) and STAT3 were tested. DAOY cells were treated with DMSO, 50 ng/ml of IFN-γ, LY-5 (1-5 μM) prepared as a 20 mM stock solution in sterile DMSO, protein expressions of P-STAT3 (Tyr705) and STAT3 were tested. MCF-7 cells were treated with DMSO, 50 ng/ml of OSM, LY-5 (1-2.5 μM) or LLL12 (1-2.5 μM) prepared as a 20 mM stock solution in sterile DMSO, protein expressions of P-STAT3 (Tyr705), P-STAT1, P-STAT5, P-ERK (T202/Y204), P-AKT, STAT3 and STAT1 were tested.
The cells were harvested and lysed in cold radioimmunoprecipitation assay (RIPA) lysis buffer containing […] and phosphatase inhibitor cocktail, and were subjected to SDS-PAGE. Then they were transferred to PVDF membrane. Membranes were probed with primary antibodies (1:1,000) and horseradish peroxidase (HRP)-conjugated secondary antibody (1:10,000) (Cell Signaling Technology, Beverly, Mass.). Membranes were analyzed using Enhanced Chemiluminescence Plus reagents and scanned with the Storm Scanner (Amersham Pharmacia Biotech, Inc., Piscataway, N.J.).
MCF-7 breast cancer cells were seeded in 10 cm plates and allowed to adhere overnight. The following day, the cells were serum-starved. The cells were then left untreated or were treated with LY-5 (0.25-1 μM) and LY-3 (0.5-2.5 μM) prepared as a 20 mM stock solution in sterile DMSO or DMSO. After 5 hours, the untreated and LY-5 and LY-3 treated cells were stimulated by IL-6 (25 ng/mL). The cells were harvested after 30 minutes and analyzed by Western blot. DAOY medulloblastoma cancer cells were seeded in 10 cm plates and allowed to adhere overnight. The following day, the cells were serum-starved. The cells were then left untreated or were treated with LY-5 (1-5 μM) prepared as a 20 mM stock solution in sterile DMSO or DMSO. After 2 hours, the untreated and LY-5 treated cells were stimulated by IL-6 (25 ng/mL). The cells were harvested after 30 minutes and analyzed by Western blot.

The test system of assay [6] is OSM induced STAT3 phosphorylation. Nature of the assay: Western blot, OSM induced STAT3 phosphorylation. It is filed as cell-based, human. Conditions: MCF-7; 1-2.5 μM; OSM 50 ng/mL.
For the next assay, the system named is STAT5. Nature of the assay: Western blot, STAT5 after OSM stimulation. Conditions: MCF-7; 1 and 2.5 μM; OSM 50 ng/mL. It is filed as cell-based, human. The protocol:
as §4
MCF-7 breast cancer cells were seeded in 10 cm plates and allowed to adhere overnight. The following day, the cells were serum-starved. The cells were then left untreated or were treated with LY-5 and LLL12 (1 μM and 2.5 μM) prepared as a 20 mM stock solution in sterile DMSO or DMSO. […] The cells were harvested after 30 minutes and analyzed by Western blot.

The mark [7] stands for this setting: Homo sapiens, Table 2, cell line not given, read-out: IC50.
The mark [8] stands for this setting: Homo sapiens, Table 8, read-out: IC50 values vs. cell lines, U2OS.

Chain of STAT3 (P40763 whole entry): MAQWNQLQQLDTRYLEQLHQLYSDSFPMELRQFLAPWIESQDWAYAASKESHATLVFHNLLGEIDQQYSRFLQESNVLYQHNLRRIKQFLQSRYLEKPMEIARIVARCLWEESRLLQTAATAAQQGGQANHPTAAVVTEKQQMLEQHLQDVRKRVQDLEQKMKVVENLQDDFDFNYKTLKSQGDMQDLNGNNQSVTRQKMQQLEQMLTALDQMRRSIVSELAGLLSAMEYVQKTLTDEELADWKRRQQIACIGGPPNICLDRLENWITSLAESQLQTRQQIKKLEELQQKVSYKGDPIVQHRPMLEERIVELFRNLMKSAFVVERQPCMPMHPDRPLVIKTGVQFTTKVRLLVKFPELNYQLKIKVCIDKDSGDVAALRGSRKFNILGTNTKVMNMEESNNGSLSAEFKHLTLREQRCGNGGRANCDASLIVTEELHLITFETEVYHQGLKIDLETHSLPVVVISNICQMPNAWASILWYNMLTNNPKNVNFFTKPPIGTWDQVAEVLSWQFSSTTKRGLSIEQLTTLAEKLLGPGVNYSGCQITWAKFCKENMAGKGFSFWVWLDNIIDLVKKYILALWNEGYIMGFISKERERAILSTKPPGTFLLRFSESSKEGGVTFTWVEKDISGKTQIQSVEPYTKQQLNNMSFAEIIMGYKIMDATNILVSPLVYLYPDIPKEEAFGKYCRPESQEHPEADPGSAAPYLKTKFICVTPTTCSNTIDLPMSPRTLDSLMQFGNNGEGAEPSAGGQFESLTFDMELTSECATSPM

At STAT3, `NS(=O)(=O)c1cccc2c1C(=O)C=C(Nc1ccccc1N1CCNCC1)C2=O` [LY-17] displayed a Kd of 2420 nM.

Take `NS(=O)(=O)c1cccc2c1C(=O)C=C(Nc1ccccc1)C2=O` [LY-7, 5,8-dioxo-6-(phenylamino)-5,8-dihydronaphthalene-1-sulfonamide]: the IC50 in assay [1] (Homo sapiens, Table 6, read-out: IC50) is over 5000 nM.

Consider `NC(=O)NS(=O)(=O)c1ccc(NC2=CC(=O)c3c(cccc3S(N)(=O)=O)C2=O)cc1` [LY-9], for which the IC50 in assay [1] (setting [7]) is over 5000 nM.

For the molecule “4-(naphthalen-2-ylamino)-5H-naphtho[1,8-cd]isothiazol-5-one 1,1-dioxide [LY-6]”, in assay [1] (Table 6, read-out: IC50), the IC50 is 2500 nM.

As for “5,8-dioxo-6-(phenylamino)-5,8-dihydronaphthalene-1-sulfonamide [LY-7]”, in assay [1] (Table 2, cell line not given, read-out: IC50), the IC50 stood at 2500 nM.

Consider `O=C1C(Nc2ccccc2)=CC2=NS(=O)(=O)c3cccc1c32` [LY-2, 4-(Phenylamino)-5H-naphtho[1,8-cd]isothiazol-5-one 1,1-dioxide], for which the IC50 in assay [1] (setting [7]) is 5000 nM.

Regarding `O=C1C(Nc2ccc([N+](=O)[O-])cc2Cl)=CC2=NS(=O)(=O)c3cccc1c32` [LY-3, 4-((2-chloro-4-nitrophenyl)amino)-5H-naphtho[1,8-cd]isothiazol-5-one 1,1-dioxide], the IC50 in assay [1] (setting [7]) is 1400 nM; in assay [1] (Homo sapiens, Table 7, read-out: IC50 U2OS) it was 1390 nM; in assay [1] (setting [8]), 1390 nM; in assay [2] (Table 7, read-out: IC50 RH30), 1140 nM; in assay [2] (Table 8, read-out: IC50 values vs. cell lines, RH30) it was 1140 nM; in assay [3] (Table 7, read-out: IC50 RD2), 2560 nM. The IC50 in assay [3] (Table 8, read-out: IC50 values vs. cell lines, RD2) stood at 2560 nM. Further, the “concentration almost completely inhibiting Tyr705 phosphorylation” value in assay [4] (16 h) turned out to be 1 µM. In addition, the “constitutive STAT3 phosphorylation” value in assay [4] (LY-3 0.5-2.5 μM, LY-5 0.25-1 μM, 16 h) was “decrease in STAT3 phosphorylation; also recorded: reduced in a dose-dependent manner”. In assay [5], the “IL-6 induced STAT3 phosphorylation” value was “inhibit; also recorded: blocked the stimulation”.

Take `NS(=O)(=O)c1cccc2c1C(=O)c1cccc(O)c1C2=O` [LLL12, 5-hydroxy-9,10-dioxo-9,10-dihydroanthracene-1-sulfonamide, reference compound]: the IC50 in assay [1] (setting [8]) was found to be 1000 nM. Moreover, in assay [4] (5 μM in DMSO or ethanol, 2 h), the “STAT3 phosphorylation at Y705 and S727” value was “decrease in STAT3 phosphorylation at Y705 and S727”. For the same molecule, the “OSM induced STAT3 phosphorylation” value in assay [6] is recorded as “inhibit”. Besides, in the assay on STAT5, the “inhibition of STAT5” value is “exhibit inhibition”.
